Reference: PubChem BioAssay AID328 (DTP/NCI, 2004)
Several values for one entry are separate records, joined by “and”; a condition that tells them apart may be missing. Equal values may be shown once. Toxic doses and inconclusive results are not listed.

Test system: BDF1 mice, P388 leukemia ip, median survival T/C
Assay: NCI In Vivo Anticancer Drug Screen. Data for tumor model P388 Leukemia (intraperitoneal) in B6D2F1 (BDF1) mice
Conditions: endpoint: median survival time, higher = longer survival
How it was run: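 Reported as T/C, where T is the survival measurement in dosed animals and C the same measurement in vehicle controls.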

[1] = dose: 100.0 mg/kg/injection, schedule: Q01DX009 (ip), vehicle: saline with Tween-80
[2] = dose: 100.0 mg/kg/injection, schedule: Q04DX003 (ip), vehicle: saline with Tween-80
[3] = dose: 200.0 mg/kg/injection, schedule: Q01DX009 (ip), vehicle: saline with Tween-80
[4] = dose: 200.0 mg/kg/injection, schedule: Q04DX003 (ip), vehicle: saline with Tween-80
[5] = dose: 400.0 mg/kg/injection, schedule: Q01DX009 (ip), vehicle: saline with Tween-80
[6] = dose: 400.0 mg/kg/injection, schedule: Q04DX003 (ip), vehicle: saline with Tween-80
[7] = dose: 12.5 mg/kg/injection, schedule: Q01DX009 (ip), vehicle: saline with Tween-80
[8] = dose: 100.0 mg/kg/injection, schedule: Q04DX003 (ip), vehicle: saline sonified
[9] = dose: 100.0 mg/kg/injection, schedule: Q01DX009 (ip), vehicle: Klucel (hydroxypropylcellulose) (HPC)
[10] = dose: 200.0 mg/kg/injection, schedule: Q01DX009 (ip), vehicle: Klucel (hydroxypropylcellulose) (HPC)
[11] = dose: 400.0 mg/kg/injection, schedule: Q01DX009 (ip), vehicle: Klucel (hydroxypropylcellulose) (HPC)
[12] = dose: 25.0 mg/kg/injection, schedule: Q04DX003 (ip), vehicle: saline
[13] = dose: 50.0 mg/kg/injection, schedule: Q04DX003 (ip), vehicle: saline
[14] = dose: 100.0 mg/kg/injection, schedule: Q04DX003 (ip), vehicle: saline
[15] = dose: 50.0 mg/kg/injection, schedule: Q01DX009 (ip), vehicle: saline with Tween-80
[16] = dose: 25.0 mg/kg/injection, schedule: Q01DX009 (ip), vehicle: saline with Tween-80

CC1(C)CCc2c(ccc(C(=O)/C=C\c3ccccc3)c2O)O1
T/C (dose: 1.25 mg/kg/injection, schedule: Q01DX009 (ip), vehicle: Klucel (hydroxypropylcellulose) (HPC)): 109 % of control
T/C (dose: 2.5 mg/kg/injection, schedule: Q01DX009 (ip), vehicle: Klucel (hydroxypropylcellulose) (HPC)): 107 % of control
T/C (dose: 5.0 mg/kg/injection, schedule: Q01DX009 (ip), vehicle: Klucel (hydroxypropylcellulose) (HPC)): 102 % of control
T/C (dose: 10.0 mg/kg/injection, schedule: Q01DX009 (ip), vehicle: Klucel (hydroxypropylcellulose) (HPC)): 107 % of control
T/C (dose: 20.0 mg/kg/injection, schedule: Q01DX009 (ip), vehicle: Klucel (hydroxypropylcellulose) (HPC)): 100 % of control
T/C (dose: 40.0 mg/kg/injection, schedule: Q01DX009 (ip), vehicle: Klucel (hydroxypropylcellulose) (HPC)): 91 % of control

N#Cc1nnc2cc[nH]n2c1=O
T/C (dose: 100.0 mg/kg/injection, schedule: Q04DX002 (ip), vehicle: saline with Tween-80): 100 % of control
T/C (dose: 200.0 mg/kg/injection, schedule: Q04DX002 (ip), vehicle: saline with Tween-80): 103 % of control
T/C (dose: 400.0 mg/kg/injection, schedule: Q04DX002 (ip), vehicle: saline with Tween-80): 109 % of control

CC(C)C1=CC2=CC[C@@H]3[C@](C)(CCC[C@@]3(C)C(=O)O)[C@H]2CC1
T/C [1]: 100 % of control
T/C [2]: 100 % of control
T/C [3]: 100 % of control
T/C [4]: 100 % of control
T/C [5]: 100 % of control
T/C [6]: 100 % of control

CCOc1cc(/C=N\Nc2nnc(C)n2N)c(C)cc1N(CCCl)CCCl
T/C (dose: 5.5 mg/kg/injection, schedule: Q01DX009 (ip), vehicle: saline with Tween-80): 200 % of control
T/C (dose: 8.3 mg/kg/injection, schedule: Q01DX009 (ip), vehicle: saline with Tween-80): 209 % of control
T/C [7]: 272 % of control
T/C (dose: 18.7 mg/kg/injection, schedule: Q01DX009 (ip), vehicle: saline with Tween-80): 195 % of control
T/C (dose: 40.0 mg/kg/injection, schedule: Q04DX003 (ip), vehicle: saline): 204 % of control
T/C (dose: 50.0 mg/kg/injection, schedule: Q04DX003 (ip), vehicle: saline sonified): 168 % of control
T/C [8]: 86 % of control

CCCN1CSC(=S)N(Cc2ccccc2)C1
T/C [1]: 90 % of control
T/C [2]: 95 % of control
T/C [3]: 100 % of control
T/C [4]: 95 % of control
T/C [5]: 90 % of control
T/C [6]: 95 % of control

CC(C)(C)NC(=S)Nc1ccc2c(c1)nc(-c1ccccc1)c1cc(NC(=S)NC(C)(C)C)ccc12
T/C [2]: 111 % of control
T/C [4]: 100 % of control

ClCCN(CCCl)c1ccc(CNCCCNCc2ccc(N(CCCl)CCCl)cc2)cc1
T/C (dose: 2.5 mg/kg/injection, schedule: Q01DX009 (ip), vehicle: saline sonified): 160 % of control
T/C (dose: 3.75 mg/kg/injection, schedule: Q01DX009 (ip), vehicle: saline sonified): 170 % of control

COc1cc(C(=O)CCC(=O)O)cc(OC)c1OC
T/C [9]: 100 % of control
T/C [10]: 100 % of control
T/C (dose: 200.0 mg/kg/injection, schedule: Q04DX003 (ip), vehicle: Klucel (hydroxypropylcellulose) (HPC)): 105 % of control
T/C [11]: 95 % of control
T/C (dose: 400.0 mg/kg/injection, schedule: Q04DX003 (ip), vehicle: Klucel (hydroxypropylcellulose) (HPC)): 115 % of control

Cc1c(N)ncc2ccccc12
T/C (dose: 12.5 mg/kg/injection, schedule: Q04DX003 (ip), vehicle: saline): 115 % of control
T/C [12]: 108 % of control
T/C [13]: 99 % of control
T/C [14]: 118 % of control

O=C(c1ccccc1)C1OC1c1ccc([N+](=O)[O-])cc1 (stereo not drawn)
T/C [8]: 104 % of control
T/C (dose: 200.0 mg/kg/injection, schedule: Q04DX003 (ip), vehicle: saline sonified): 100 % of control
T/C (dose: 400.0 mg/kg/injection, schedule: Q04DX003 (ip), vehicle: saline sonified): 100 % of control

CN(Nc1c([N+](=O)[O-])cc([N+](=O)[O-])cc1[N+](=O)[O-])c1ccc2ccccc2c1
T/C [9]: 120 % of control
T/C [10]: 105 % of control
T/C [11]: 110 % of control

CCCCCCOC(CN(C)C)C(Cl)(Cl)Cl (stereo not drawn)
T/C [15]: 124 % of control
T/C [1]: 107 % of control
T/C [3]: 116 % of control

CC(=O)OC1CC(OC2C(O)CC(OC3C(O)CC(OC4CCC5(C)C(CCC6C5CCC5(C)C(C7=CC(=O)OC7)CCC65O)C4)OC3C)OC2C)OC(C)C1OC1OC(CO)C(O)C(O)C1O (stereo not drawn)
T/C (dose: 5.0 mg/kg/injection, schedule: Q01DX010 (ip), vehicle: carboxymethylcellulose (CMC)): 90 % of control

O=c1ccc2c([nH]1)CCC2
T/C [16]: 86 % of control
T/C [12]: 100 % of control
T/C [15]: 90 % of control
T/C [13]: 95 % of control
T/C [1]: 95 % of control
T/C [14]: 100 % of control

CCSC1(SCC)C(=O)OC2=C(CCCCC2)C1N(C)c1ccccc1 (stereo not drawn)
T/C [15]: 87 % of control
T/C [3]: 96 % of control

O=C(Nc1ncccn1)C12CC3CC(CC(C3)C1)C2
T/C [15]: 88 % of control
T/C [1]: 96 % of control
T/C [3]: 93 % of control

N#Cc1cccc(CC(O)(c2ccccc2)c2ccccc2)c1
T/C [15]: 89 % of control
T/C [1]: 87 % of control
T/C [3]: 95 % of control

C=C1N(c2nc(Cl)nc(Cl)n2)c2ccccc2C1(C)C
T/C [7]: 109 % of control and 111 % of control
T/C [16]: 108 % of control and 112 % of control
T/C [15]: 116 % of control

COc1ccc(C2CCc3cc(OC)c(OC)cc3C2NC=O)cc1OC (stereo not drawn)
T/C (dose: 120.0 mg/kg/injection, schedule: Q01DX009 (ip), vehicle: saline with Tween-80): 87 % of control
T/C (dose: 240.0 mg/kg/injection, schedule: Q01DX009 (ip), vehicle: saline with Tween-80): 95 % of control

COc1cccc2c1C(=O)c1c(O)c3c(c(O)c1C2=O)CC(O)(C(=O)CO)CC3OC1CC(N)C(O)C(C)O1 (stereo not drawn) (tested in a mixture with another compound)
T/C (dose: 1.56 mg/kg/injection, schedule: Q01DX009 (ip), vehicle: other): 118 % of control
T/C (dose: 3.13 mg/kg/injection, schedule: Q01DX009 (ip), vehicle: other): 106 % of control
T/C (dose: 6.25 mg/kg/injection, schedule: Q01DX009 (ip), vehicle: other): 93 % of control
T/C (dose: 12.5 mg/kg/injection, schedule: Q01DX009 (ip), vehicle: other): 108 % of control

COc1cc2c(c(OC)c1OC)-c1ccc(OC)c(=O)cc1[C@@H](N)CC2
T/C (dose: 1.25 mg/kg/injection, schedule: Q01DX009 (ip), vehicle: water): 120 % of control
T/C (dose: 2.0 mg/kg/injection, schedule: Q01DX010 (ip), vehicle: water): 160 % of control
T/C (dose: 5.0 mg/kg/injection, schedule: Q01DX009 (ip), vehicle: water): 94 % of control
T/C (dose: 20.0 mg/kg/injection, schedule: Q04DX003 (ip), vehicle: Klucel (hydroxypropylcellulose) (HPC)): 176 % of control
T/C (dose: 30.0 mg/kg/injection, schedule: Q04DX003 (ip), vehicle: Klucel (hydroxypropylcellulose) (HPC)): 98 % of control
T/C (dose: 45.0 mg/kg/injection, schedule: Q04DX003 (ip), vehicle: Klucel (hydroxypropylcellulose) (HPC)): 89 % of control

Cc1nc2c(=O)n(C)c(=O)n(C)c2n1C
T/C (dose: 50.0 mg/kg/injection, schedule: Q04DX003 (ip), vehicle: saline with Tween-80): 100 % of control
T/C [2]: 90 % of control
T/C [4]: 100 % of control

COc1ccc2cc3[n+](cc2c1OC)CCc1cc2c(cc1-3)OCO2
T/C (dose: 1.0 mg/kg/injection, schedule: Q01DX010 (ip), vehicle: steriod suspending solution): 104 % of control
T/C (dose: 2.0 mg/kg/injection, schedule: Q01DX010 (ip), vehicle: steriod suspending solution): 122 % of control
T/C (dose: 6.0 mg/kg/injection, schedule: Q01DX010 (ip), vehicle: saline): 104 % of control

Cc1cc(N)c(C)c([N+](=O)[O-])c1
T/C [15]: 100 % of control
T/C [1]: 100 % of control
T/C [3]: 95 % of control

CCCCn1cnc2c(=S)nc[nH]c21
T/C (dose: 15.0 mg/kg/injection, schedule: Q01DX010 (ip), vehicle: water): 100 % of control
T/C (dose: 16.0 mg/kg/injection, schedule: Q01DX010 (ip), vehicle: saline): 100 % of control
T/C (dose: 30.0 mg/kg/injection, schedule: Q01DX010 (ip), vehicle: water): 90 % of control
T/C (dose: 32.0 mg/kg/injection, schedule: Q01DX010 (ip), vehicle: saline): 90 % of control and 95 % of control
T/C (dose: 64.0 mg/kg/injection, schedule: Q01DX010 (ip), vehicle: saline): 104 % of control and 113 % of control
T/C (dose: 128.0 mg/kg/injection, schedule: Q01DX010 (ip), vehicle: saline): 95 % of control and 104 % of control

CN(C)C(=O)C1CCC1
T/C [1]: 104 % of control
T/C [3]: 90 % of control
T/C [5]: 113 % of control
